Here are results for 1 molecule from patent publication EP0173262A2, “Use of 1,4-naphthoquinone derivatives in a low concentration as immunostimulating agents” (Carnivora-Deutschland GmbH, priority 1984, dated 1986).

The test system of experiment [1] is Granulozyten. Description: Granulocyte test (modified after Brandt), phagocytosis of yeast particles. Format: cell-based. The note with it: concentration range 10^-1 bis 10^-2 mg/ml. From the text:
(§1) Die vorliegende Erfindung beruht auf dem erstmaligen Nachweis einer Immunstimulation durch 1,4-Naphthochinon-Derivate der angegebenen Art. Die Immunstimulation läßt sich experimentell in vitro und in vivo klar nachweisen. Als geeignete immunologische Testverfahren dienen der Carbon Clearance-Test (CCT)-RES-Funktion (Biozzi, G. Benacerraf, B. und Halpern, B.N., Br. J. Exp.Pathol. 34, 441 (1953)); der Granulocyten-Test gemäß Brandt, L., Scand.J.Haematol. Suppl. 2 (1967), der vorzugsweise in modifizierter Form angewandt wird; sowie eine Chemoluminenszenz-Messung nach Allen (Allen, R.C. in "Bioluminescence and Chemiluminescence; Basic Chemistry and Analytical Applications", Eds: De Luca und Mc Elroy, S. 63-73, Academie Press, New York, 1981).
In 20 ml Spritze 1 Tropfen Heparin (Thrombophob) und ca. 10 ml Blut abnehmen und mit 1,5% Dextran T 500 im Verhältnis 2:1 mischen. Kanüle auf der Spritz umbiegen und 30 Minuten bei 25°C absetzen lassen (ca. 2-3 ml Blut für Eigenserum abnehmen).
Den Überstand (Leukozytensuspension) in steriles Röhrchen überspritzen; 7 Minuten bei 500 U. zentrifugieren.
Überstand weggießen, Bodensatz (Leukozyten) 2 mal mit RPM I-Puffer bei 500 U. waschen.
Granulozyten mit ca. 5 ml Puffer auffüllen und Zellen auf 5 x 10 x 10^6 einstellen. […] Zellsuspension in 0,475 ml 3 % iger Essigsäure mischen. In Neubauerkammer 4 Quadrate auszählen (100 Zellen/Kammer). […]

Experiment [2] relates to polymorphkernigen Leucocyten (PMNL). Description: Chemiluminescence measurement (modified after Allen), zymosan-stimulated PMNL. Format: cell-based. The note with it: concentration range 10^-1 bis 10^-2 mg/ml.
Excerpt: as §1
• a) PBS-Puffer ohne Ca^2+ und Mg^2+ (steril) (Fa. Biochrom, Berlin) • b) Veronal-gepufferte Kochsalzlösung mit Ca^2+, Mg^2+, Glucose und Albumin Stammlösung: 8.3 g NaCl, 1.02 g Natrium, 5,5-Diäthylbarbiturat (Veronal), 102 mg MgCl2, 22 mgCaCl2 in 150 ml H2O (bidest.) lösen, + 3.5 ml 1M IICL auf 200 ml mit H20 (bidest.) auffüllen. Von dieser Stammlösung werden 40 ml mit 140 ml H20 (bidest.) verdünnt, mit 1M HCL auf pH 7.0 eingestellt und mit II20 (bidest.) auf 200 ml auf gefüllt. […]

Structures are written as SMILES.

Take `CC1=CC(=O)c2c(O)cccc2C1=O` [Plumbagin]: in experiment [1], the “effect on phagocytosis at higher concentrations” value is recorded as “ausgeprägte Phagocytosehemmung”. Besides, in experiment [2], the “effect at higher concentrations” value was “Phagocytosehemmung sowie eine Immunsuppression bzw. Cytotoxicität”.
